pEC50: −log10 of the molar value. In brackets after ≈: the same amount, converted by molar mass.
Legend:
[1] = Aqueous solubility (buffer vs acetonitrile/water, LC-UV); assay type: physicochemical; details: kinetic from dmso stock, buffer pH 6.8, 24 h of shaking, DMSO concentration of 2.5%
Protocol: The aqueous solubility of the compounds of the invention is determined by comparing the amount dissolved in buffer to the amount in an acetonitrile/water (1/1) solution. Starting from a 10 mM DMSO stock solution aliquots are diluted with acetonitrile/water (1/1) or buffer, respectively. After 24 h of shaking, the solutions are filtrated and analyzed by LC-UV. The amount dissolved in buffer is compared to the amount in the acetonitrile solution. Solubility is usually being measured from 0.001 to 0.125 mg/mL at a DMSO concentration of 2.5%. If more than 90% of the compound is dissolved in buffer, the value is marked with “>”.

human GPR40 receptor = human GPR40 receptor (Homo sapiens, UniProt O14842); experiment: IP1 accumulation measurements using the IPOne assay system; assay type: cell-based; details: 1321N1 cells stably expressing human GPR40 receptor; stimulated 1 h at 37° C.
Protocol: IP1 is assayed according to the manufacturers description (Cisbio Bioassays, France). In brief, the assay is started by substitution of the culture medium by stimulation buffer (Hepes 10 mM, CaCl2 1 mM, MgCl2 0.5 mM, KCl 4.2 mM, NaCl 146 mM, glucose 5.5 mM and LiCl 50 mM, pH 7.4). Cells are stimulated for 1 h at 37° C., 5% CO2 by addition of the compounds that are diluted in stimulation buffer containing LiCl. Assays are stopped by adding HTRF-conjugates (IP1-d2 and Anti-IP1 cryptate Tb) and lysis buffer, provided by the manufacturer. After an incubation time of 1 h at room temperature plates are measured using an EnVision™, Perkin Elmer. The obtained fluorescence ratios at 665/615 […] are then used to calculate the pEC50 values using Assay Explorer 3.3 Software (Accelrys, Inc.) by interpolation using an IP1 reference curve and subsequent sigmoidal curve fitting allowing for a variable hill slope.

Chain of human GPR40 receptor (O14842 whole entry): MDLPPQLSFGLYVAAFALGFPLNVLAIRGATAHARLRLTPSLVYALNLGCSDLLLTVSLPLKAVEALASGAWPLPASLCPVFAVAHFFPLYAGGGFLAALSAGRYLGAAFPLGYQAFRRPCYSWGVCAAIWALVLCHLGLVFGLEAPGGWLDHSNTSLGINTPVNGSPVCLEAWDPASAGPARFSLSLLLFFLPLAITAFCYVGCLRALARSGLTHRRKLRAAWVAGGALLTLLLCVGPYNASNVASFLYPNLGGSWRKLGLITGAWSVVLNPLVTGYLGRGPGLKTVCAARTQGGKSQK

In the case of `Cc1cc(OCCC(C)(C)O)cc(C)c1-c1ccc(F)c2c1CC[C@H]2Oc1ccc([C@H]2C[C@@H]2C(=O)O)cc1` [Example 17 in WO 2013/178575, reference compound], the solubility at 24 h [1] was less than 1 µg/mL.

Work on `Cc1cc(OCCC(C)(C)O)cc(C)c1-c1ccc(F)c(CNc2cnc([C@H]3C[C@@H]3C(=O)O)cn2)c1` [Example 19] yielded a pEC50 (human GPR40 receptor) of 7.80 and a solubility at 24 h [1] of 72 µg/mL (≈ 146 µM).

For `Cc1cc(-c2nnn(C)n2)cc(C)c1-c1ccc(F)c(CNc2cnc([C@H]3C[C@@H]3C(=O)O)cn2)c1` [Example 26], the pEC50 (human GPR40 receptor) was 8.22 and the solubility at 24 h [1] was 47 µg/mL (≈ 99.3 µM).

`Cc1cc(-c2nnn(C)n2)cc(C)c1-c1ccc(F)c2c1CC[C@H]2Oc1ccc([C@H]2C[C@@H]2C(=O)O)cc1` [Example 45 in WO 2013/178575, reference compound] gave a solubility at 24 h [1] of less than 1 µg/mL.

Work on `Cc1cc(C(N)=O)cc(C)c1-c1ccc(F)c(CNc2cnc(C3CC3C(=O)O)cn2)c1` (stereo not shown) [Example 49] yielded a pEC50 (human GPR40 receptor) of 8.00.

Molecule `COc1cc(OC)c(Cl)c(-c2ccc(F)c(CNc3cnc(C4CC4C(=O)O)cn3)c2)c1Cl` (stereo not shown) [Example 50] has a pEC50 (human GPR40 receptor) of 5.86.

In the case of `N#CC1(c2ccccc2-c2ccc(F)c(CNc3cnc(C4CC4C(=O)O)cn3)c2)CC1` (stereo not shown) [Example 51], the pEC50 (human GPR40 receptor) was 7.29.

Molecule `COc1cc(OC)c(-c2ccc(F)c(CNc3cnc(C4CC4C(=O)O)cn3)c2)c(OC)c1` (stereo not shown) [Example 53] has a pEC50 (human GPR40 receptor) of 6.05.

For `O=C(O)C1CC1c1cnc(NCc2cc(-c3c(F)cc(OC4CC4)cc3F)ccc2F)cn1` (stereo not shown) [Example 54], the pEC50 (human GPR40 receptor) was 7.96.

Work on `Nc1cc(F)c(-c2ccc(F)c(CNc3cnc(C4CC4C(=O)O)cn3)c2)c(F)c1` (stereo not shown) [Example 55] yielded a pEC50 (human GPR40 receptor) of 6.72.

Molecule `O=C(O)C1CC1c1cnc(NCc2cc(-c3ccc(-c4cnco4)cc3)ccc2F)cn1` (stereo not shown) [Example 56] has a pEC50 (human GPR40 receptor) of 6.75.

`N#Cc1cccc(C#N)c1-c1ccc(F)c(CNc2cnc(C3CC3C(=O)O)cn2)c1` (stereo not shown) [Example 57] gave a pEC50 (human GPR40 receptor) of less than 5.00.

`COc1cc(F)c(-c2ccc(F)c(CNc3cnc(C4CC4C(=O)O)cn3)c2)c(F)c1` (stereo not shown) [Example 58] gave a pEC50 (human GPR40 receptor) of 6.05.

`Cc1cccc(C)c1-c1ccc(F)c(CNc2cnc(C3CC3C(=O)O)cn2)c1` (stereo not shown) [Example 59] gave a pEC50 (human GPR40 receptor) of 7.62.
